Holding throughout (assay): SPR (Biacore S200)
Holding throughout (type): binding
(SPR reads the build-up and loss of mass on a sensor chip optically.)

Assay [1] concerns the target T1, recombinant mouse TLR8 (Mus musculus, UniProt P58682).
T1 construct: recombinant from Escherichia coli supernatant
T1 sequence (P58682 24-1032): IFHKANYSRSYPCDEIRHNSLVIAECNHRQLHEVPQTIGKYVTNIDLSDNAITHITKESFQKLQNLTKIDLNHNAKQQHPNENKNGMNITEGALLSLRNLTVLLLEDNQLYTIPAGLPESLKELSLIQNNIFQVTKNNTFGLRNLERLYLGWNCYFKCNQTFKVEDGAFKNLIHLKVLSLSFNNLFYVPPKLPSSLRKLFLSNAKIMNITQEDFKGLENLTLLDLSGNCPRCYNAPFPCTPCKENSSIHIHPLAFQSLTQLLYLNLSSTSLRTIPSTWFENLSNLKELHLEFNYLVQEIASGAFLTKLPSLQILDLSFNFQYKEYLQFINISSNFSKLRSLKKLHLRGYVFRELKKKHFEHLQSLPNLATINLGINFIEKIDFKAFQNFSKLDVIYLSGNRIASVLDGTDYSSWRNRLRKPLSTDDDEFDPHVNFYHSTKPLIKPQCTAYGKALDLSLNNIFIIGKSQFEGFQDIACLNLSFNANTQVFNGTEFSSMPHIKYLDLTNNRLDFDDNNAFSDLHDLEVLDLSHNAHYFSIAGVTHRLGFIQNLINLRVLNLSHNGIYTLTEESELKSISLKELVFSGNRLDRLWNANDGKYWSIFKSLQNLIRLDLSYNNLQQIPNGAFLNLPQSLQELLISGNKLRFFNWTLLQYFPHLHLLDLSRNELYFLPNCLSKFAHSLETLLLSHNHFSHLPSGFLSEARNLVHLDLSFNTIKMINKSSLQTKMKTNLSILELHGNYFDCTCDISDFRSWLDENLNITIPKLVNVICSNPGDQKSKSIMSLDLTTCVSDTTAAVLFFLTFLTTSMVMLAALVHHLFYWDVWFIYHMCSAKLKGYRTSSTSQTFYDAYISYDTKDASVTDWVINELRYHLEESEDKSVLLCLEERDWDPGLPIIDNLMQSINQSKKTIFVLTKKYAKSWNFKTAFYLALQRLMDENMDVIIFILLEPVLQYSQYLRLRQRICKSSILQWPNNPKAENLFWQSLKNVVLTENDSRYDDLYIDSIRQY
As to conditions: 80 μM compound.

For assay [2], the target named is T1, recombinant mouse TLR8. The conditions noted are these: read-out: KD8.
The target in another assay is T2, recombinant mouse TLR7 (Mus musculus, UniProt P58681).
T2 construct: recombinant from Escherichia coli supernatant
T2 sequence (P58681 27-1050): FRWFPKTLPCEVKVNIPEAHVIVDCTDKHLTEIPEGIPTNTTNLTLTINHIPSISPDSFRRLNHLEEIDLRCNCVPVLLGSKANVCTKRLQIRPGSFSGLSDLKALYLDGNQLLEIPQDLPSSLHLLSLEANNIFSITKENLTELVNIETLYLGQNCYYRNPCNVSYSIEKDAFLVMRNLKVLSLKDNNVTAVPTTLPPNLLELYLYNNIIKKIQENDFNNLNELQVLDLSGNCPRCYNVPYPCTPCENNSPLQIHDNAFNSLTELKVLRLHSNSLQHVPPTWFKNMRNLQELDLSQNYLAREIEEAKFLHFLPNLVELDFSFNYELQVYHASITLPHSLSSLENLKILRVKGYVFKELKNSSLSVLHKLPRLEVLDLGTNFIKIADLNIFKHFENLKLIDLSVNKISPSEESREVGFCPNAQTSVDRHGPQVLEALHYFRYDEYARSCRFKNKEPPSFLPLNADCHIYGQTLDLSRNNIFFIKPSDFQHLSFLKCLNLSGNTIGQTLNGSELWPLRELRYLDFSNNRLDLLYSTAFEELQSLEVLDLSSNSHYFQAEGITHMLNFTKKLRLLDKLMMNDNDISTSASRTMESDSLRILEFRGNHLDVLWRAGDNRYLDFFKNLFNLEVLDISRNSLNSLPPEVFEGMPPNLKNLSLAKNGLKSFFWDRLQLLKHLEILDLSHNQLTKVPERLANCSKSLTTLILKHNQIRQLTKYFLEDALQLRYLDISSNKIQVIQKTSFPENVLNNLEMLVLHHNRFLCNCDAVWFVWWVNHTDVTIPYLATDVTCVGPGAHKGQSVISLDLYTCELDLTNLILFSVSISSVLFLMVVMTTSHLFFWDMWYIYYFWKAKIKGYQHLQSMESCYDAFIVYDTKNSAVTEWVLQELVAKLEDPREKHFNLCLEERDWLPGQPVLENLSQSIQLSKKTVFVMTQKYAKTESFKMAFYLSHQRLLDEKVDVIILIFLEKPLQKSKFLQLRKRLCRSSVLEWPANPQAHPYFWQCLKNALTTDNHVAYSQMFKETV
As to conditions: 80 μM compound.

Results on 2 molecules are retold here after publication PMC12062745, “The immunostimulatory activity of Epimedium flavonoids involves toll-like receptor 7/8” (Frontiers in Pharmacology, 2025).

In the case of `COc1ccc(-c2oc3c(CC=C(C)C)c(O[C@@H]4O[C@H](CO)[C@@H](O)[C@H](O)[C@H]4O)cc(O)c3c(=O)c2O)cc1` [icariin I], the “response value (RU)” value at recombinant mouse TLR8 [1] was found to be 43 RU.

Regarding `COc1ccc(-c2oc3c(CC=C(C)C)c(O)cc(O)c3c(=O)c2O[C@@H]2O[C@@H](C)[C@H](O)[C@@H](O)[C@H]2O)cc1` [icariin II], the Kd at recombinant mouse TLR8 [2] turned out to be 10.3 µM. The “SPR (Biacore S200)” value at recombinant mouse TLR7 was “SPR analysis revealed that icariin II exhibited the highest binding response to TLR7”.
